Experimental data as given in ChEMBL document CHEMBL1201862, “PubChem BioAssay data set” (2004).
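Tested at 5 concentrations; 48 h exposure; 96-well plates; endpoints linearly interpolated, else capped at highest concentration. The concentration for 50% growth inhibition is given as GI50.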 Active and inactive are the calls of the source. Rule as the data show it: active = GI50 up to about 1.1 µM and inactive = higher.

Experiments:
Experiment in all cases: inhibition of tumour cell growth, NCI panel, 48 h
[1] = test system: 786-0
[2] = test system: A498
[3] = test system: A549
[4] = test system: ACHN
[5] = test system: BT-549
[6] = test system: CAKI-1
[7] = test system: CCRF-CEM
[8] = test system: COLO 205
[9] = test system: DU-145
[10] = test system: EKVX
[11] = test system: HCC 2998
[12] = test system: HCT-116
[13] = test system: HCT-15
[14] = test system: HL-60
[15] = test system: HOP-62
[16] = test system: HOP-92
[17] = test system: HT-29
[18] = test system: Hs-578T
[19] = test system: IGROV-1
[20] = test system: K562
[21] = test system: KM12
[22] = test system: LOX IMVI
[23] = test system: M14
[24] = test system: MCF7
[25] = test system: MDA-MB-231
[26] = test system: MDA-MB-435
[27] = test system: MDA-N
[28] = test system: MOLT-4
[29] = test system: Malme-3M
[30] = test system: NCI-H226
[31] = test system: NCI-H23
[32] = test system: NCI-H460
[33] = test system: NCI-H522
[34] = test system: NCI/ADR-RES
[35] = test system: OVCAR-3
[36] = test system: OVCAR-4
[37] = test system: OVCAR-5
[38] = test system: OVCAR-8
[39] = test system: PC-3
[40] = test system: RPMI-8226
[41] = test system: RXF 393
[42] = test system: SF-268
[43] = test system: SF-295
[44] = test system: SF-539
[45] = test system: SK-MEL-28
[46] = test system: SK-MEL-2
[47] = test system: SK-MEL-5
[48] = test system: SK-OV-3
[49] = test system: SN12C
[50] = test system: SNB-19
[51] = test system: SNB-75
[52] = test system: SR
[53] = test system: SW-620
[54] = test system: T47D
[55] = test system: TK-10
[56] = test system: U-251
[57] = test system: UACC-257
[58] = test system: UACC-62
[59] = test system: UO-31

With CCOC(=O)/C=C(\C(=O)OCC)n1cc(C)c(=O)n(Cc2cn(CCCCOC(C)=O)nn2)c1=O the GI50 [1] was 4.43 µM (inactive), the GI50 [2] was 18.9 µM (inactive) and the GI50 [3] was 19.4 µM (inactive). For the same compound, the GI50 [4] was 4.28 µM (inactive), the GI50 [5] was 10.5 µM (inactive) and the GI50 [6] was 3.92 µM (inactive). For the same compound, the GI50 [7] was 1.83 µM (inactive), the GI50 [8] was 2.98 µM (inactive) and the GI50 [9] was 19.8 µM (inactive). For the same compound, the GI50 [10] was 9.04 µM (inactive), the GI50 [11] was 18.3 µM (inactive) and the GI50 [12] was 11.3 µM (inactive). The GI50 [13] was 6.37 µM, the GI50 [14] was 2.27 µM (inactive) and the GI50 [15] was 18.4 µM (inactive). For the same compound, the GI50 [16] was 2.15 µM (inactive), the GI50 [17] was 8.32 µM (inactive) and the GI50 [18] was 16.3 µM (inactive). The GI50 [19] was 13.6 µM (inactive), the GI50 [20] was 2.53 µM (inactive) and the GI50 [21] was 18.5 µM (inactive). For the same compound, the GI50 [22] was 6.62 µM (inactive), the GI50 [23] was 11.9 µM (inactive) and the GI50 [24] was 5.47 µM (inactive). For the same compound, the GI50 [25] was 15.7 µM (inactive), the GI50 [26] was 9.95 µM (inactive) and the GI50 [27] was 20.7 µM (inactive). For the same compound, the GI50 [28] was 2.44 µM (inactive), the GI50 [29] was 2.04 µM (inactive) and the GI50 [30] was 11.3 µM (inactive). The GI50 [31] was 14.2 µM (inactive), the GI50 [32] was 8.18 µM (inactive) and the GI50 [33] was 1.41 µM (inactive). For the same compound, the GI50 [34] was 19.6 µM (inactive), the GI50 [35] was 13.3 µM (inactive) and the GI50 [36] was 23.2 µM (inactive). The GI50 [37] was 12.4 µM (inactive), the GI50 [38] was 8.02 µM (inactive) and the GI50 [39] was 14.3 µM (inactive). The GI50 [40] was 7.35 µM (inactive), the GI50 [41] was 1.48 µM (inactive) and the GI50 [42] was 14.2 µM (inactive). For the same compound, the GI50 [43] was 18.4 µM (inactive), the GI50 [44] was 1.95 µM (inactive) and the GI50 [45] was 11.5 µM (inactive). The GI50 [46] was 15.9 µM (inactive), the GI50 [47] was 17.1 µM (inactive) and the GI50 [48] was 32.4 µM (inactive). For the same compound, the GI50 [49] was 20.7 µM (inactive), the GI50 [50] was 20 µM (inactive) and the GI50 [51] was 15.7 µM (inactive). For the same compound, the GI50 [52] was 3.05 µM (inactive), the GI50 [53] was 3.47 µM (inactive) and the GI50 [54] was 11.6 µM (inactive). For the same compound, the GI50 [55] was 7.38 µM (inactive), the GI50 [56] was 15.1 µM (inactive) and the GI50 [57] was 16.1 µM (inactive). The GI50 [58] was 15.9 µM (inactive) and the GI50 [59] was 14.5 µM (inactive).
